# Test results published in patent publication US8497083B2, “Fructosyl amino acid oxidase” (priority 2009, dated 2013).
# Key:
# [1] = target: T1, fructosyl amino acid oxidase from Phaeosphaeria nodorum (PnFPOX, SEQ ID NO: 1) variant N56A (Parastagonospora nodorum, UniProt Q0UIL6, N56A); assay: Oxidase activity kinetics (4AA/TODB/POD), PnFPOX N56A mutant; format: biochemical; details: purified enzyme, 25° C., pH 7.0
# Text: As used herein “oxidase activity” is an enzymatic activity (Vmax) of the fructosyl amino acid oxidase to catalyze oxidation of fructosyl amino acid to generate 2-keto-D-glucose and the corresponding amino acid while utilizing oxygen as an electron acceptor. The oxidase activity may be assayed by measuring the amount of generated H2O2 by any methods known in the art, including by way of non-limiting example, reagents for H2O2 detection such as […] (4-aminoantipyrine/N,N-Bis(4-sulfobutyl)-3-methylaniline disodium salt/horseradish peroxidase) or by Pt electrode. As used herein in the context of the relative or quantitative activity, the oxidase activity is specifically defined to be the mole amount of the substrate (fructosyl amino acid) oxidized per unit time measured by the amount of generated H2O2 at 25° C. in 10 mM PPB, pH 7.0, 1.5 mM TODB, 2 U/ml horseradish peroxidase (POD), and 1.5 mM 4-aminoantipyrine (4AA). The formation of quinoneimine dye may be measured spectrophotometrically at 546 nm.
# (§1) Escherichia coli BL21 (DE3) cells harboring expression vectors of N1-1 FAOD (SEQ ID NO: 2) mutants were grown in 150 ml of LB medium containing 50 μg/ml kanamycin at 37° C. After reaching an A660 value of 0.6, 0.3 mM IPTG was added and incubated at 25° C. for an additional 5 hours. The cells were collected by centrifugation and washed twice with 0.85% NaCl.aq. Then, the cells were resuspended in 10 mM Potassium Phosphate Buffer (PPB) pH 7.0 and lysed by ultrasonic homogenizer. The lysate was centrifuged at 10,000×g, 4° C. for 10 min, and the supernatant was centrifuged at 50,000 rpm, 4° C. for 60 min, then the supernatant was dialyzed against 10 mM PPB (pH 7.0). The oxidase activity was assayed at 25° C. in 10 mM PPB, pH 7.0, 1.5 mM TODB, 2 U/ml horseradish peroxidase (POD), and 1.5 mM 4-aminoantipyrine (4AA) in the presence of substrates (0.2, 0.5, 0.75, 1, 2, 5 mM f-^αVal […]). The formation of quinoneimine dye was measured spectrophotometrically at 546 nm. The dehydrogenase activity was assayed at 25° C. in 10 mM PPB (pH 7.0), 0.6 mM DCIP, and 6 mM methoxy PMS (mPMS) in the presence of substrates (0.2, 0.5, 1, 2, 5 mM f-^αVal or 5 mM f-^αVal-His).
# (§2) Mutations were introduced using site-directed mutagenesis as in Example 1, and BL21 (DE3) cells were transformed with an expression vector containing wild-type or mutant PnFPOX (SEQ ID NO: 1). The cultured cells were resuspended in 10 mM PPB, pH 7.0, and lysed by sonication. The lysate was centrifuged at 10,000 g at 4° C. for 20 min, and the supernatant was centrifuged at 50,000 rpm at 4° C. for 60 min. The oxidase and dehydrogenase activities were measured as in Example 1.
# BL21 (DE3) transformed with pEPN (pET28a-PnFPOX)-N56A was grown aerobically at 37° C. in LB medium (2 l) containing 50 μg kanamycin ml^−1. […]
# [2] = target: T1, fructosyl amino acid oxidase from Phaeosphaeria nodorum (PnFPOX, SEQ ID NO: 1) variant N56A; assay: Dehydrogenase activity kinetics (mPMS/DCIP), PnFPOX N56A mutant; format: biochemical; details: purified enzyme, 25° C., pH 7.0
# Text: As used herein, “dehydrogenase activity” is an enzymatic activity (Vmax) of the fructosyl amino acid oxidase to catalyze oxidation of fructosyl amino acid to generate 2-keto-D-glucose and the corresponding amino acid while utilizing an electron mediator other than oxygen as an electron acceptor. The dehydrogenase activity may be assayed by measuring the amount of electrons transferred to the mediator using, for example, one of mPMS/DCIP (1-methoxy-5-methylphenazinium methylsulfate/2,6-dichloroindophenol), cPES (trifluoro-acetate-1-(3-carboxy-propoxy)-5-ethyl-phenanzinium, NA BM31—1144 (N,N-bis-(hydroxyethyl)-3-methoxynitrosoaniline hydrochloride, NA BM31—1008 (N,N-bis-hydroxyethyl-4-nitrosoaniline) and N—N-4-dimethyl-nitrosoaniline.
# As used herein in the context of the relative or quantitative activity, the dehydrogenase activity is specifically defined to be the mole amount of the substrate (fructosyl amino acid) oxidized per unit time measured by the amount of electrons transferred to the mediator at 25° C. in 10 mM PPB (pH 7.0), 0.6 mM DCIP, and 6 mM methoxy PMS (mPMS).
# as §1
# as §2, with “1. […]” for “1.”
# T1 sequence (Q0UIL6 whole entry N56A): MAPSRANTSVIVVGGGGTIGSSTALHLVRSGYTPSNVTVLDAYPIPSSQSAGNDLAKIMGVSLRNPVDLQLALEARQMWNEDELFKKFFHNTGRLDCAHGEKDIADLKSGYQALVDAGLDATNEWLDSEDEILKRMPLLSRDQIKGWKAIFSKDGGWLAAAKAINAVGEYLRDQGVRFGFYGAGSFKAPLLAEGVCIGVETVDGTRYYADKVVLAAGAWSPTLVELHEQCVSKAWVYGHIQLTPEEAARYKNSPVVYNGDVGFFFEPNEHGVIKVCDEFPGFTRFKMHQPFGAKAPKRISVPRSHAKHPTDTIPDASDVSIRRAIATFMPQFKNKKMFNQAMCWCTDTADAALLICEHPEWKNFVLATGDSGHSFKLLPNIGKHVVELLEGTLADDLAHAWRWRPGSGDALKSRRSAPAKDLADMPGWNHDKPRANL
smiles,measurement,setting,value
"CC(C)[C@H](NCC1(O)OC[C@@H](O)[C@@H](O)[C@@H]1O)C(=O)O (some centres unmarked) [f-αVal, fructosyl valine]",Vmax,[1],4.39 U/mg
same,Vmax,[2],95.1 U/mg
